From US7384961B2, “Saturated and unsaturated heteroarylcycloalkylmethyl amines as anti-depressants” (priority 2002, dated 2008)
Marks after values point to notes of the source that are not given here. Blank lines part the entries; values can stand above or below the molecule they belong to.

Assays:
mice [1] = assay: Isolation-induced pup vocalization test in mice; format: in vivo; conditions: for ED50: sc, read-out: Change in vocalization frequency versus control, ED50 value
Description: d) Investigation of the Anxiolytic Action in the Isolation-Induced Pup Vocalization Test in Mice
The isolation-induced pup vocalization test in mice was used to investigate anxiolytic actions (Fish, E. W., Sekinda, M., Ferrari, P. F., Dirks, A., Miczek, K. A., Psychopharmacology, vol. 149, p. 277-285, (2000)). Litters of 7 to 13 mice were used for the testing. At the age of 7 days the animals were separated from the mother and placed in an incubation cage with an internal temperature of approx. 34° C. For determination of the vocalizations in the ultrasonic range, the animals were placed individually on a temperature-controlled platform (23 cm×23 cm, divided by a grid into fields of 2 cm×2 cm, 19±1° C.) of a soundproofed test chamber for a duration of 30 sec. The ultrasonic vocalizations were recorded with a high-frequency capacitor microphone, filtered, amplified, digitalized and plotted and analysed using commercial software. Only animals with pre-values of at least 6 vocalizations within 30 sec and a body weight of 3.5 to 5.5 g were employed for the testing. After subcutaneous (s.c.) injection of substance or vehicle, the animals were returned to the incubation cage for a duration of 10 min and then placed individually again on the temperature-controlled plate of the test chamber for a duration of 4 min. In addition to the number of vocalizations, crossings of the grid of the plate and body turns of the mice were determined to investigate influences of the substance on locomotor activity and coordination. Changes in the vocalization frequencies, crossings of the grid and body turns were stated relative to the vehicle control. A reduction in the vocalization frequency is described for anxiolytics.

NA re-uptake = molecular target: T1, NA re-uptake (Rattus norvegicus, UniProt Q63380); assay: Inhibition of NA re-uptake in rat brain synaptosomes (P2 fraction, hypothalamus); format: biochemical; conditions: 10 μmol/l
T1 construct: synaptosomes are freshly isolated from rat brain areas; from tissue; host or cells: rat brain synaptosomes (P2 fraction), hypothalamus
T1 sequence (Q63380 1-617): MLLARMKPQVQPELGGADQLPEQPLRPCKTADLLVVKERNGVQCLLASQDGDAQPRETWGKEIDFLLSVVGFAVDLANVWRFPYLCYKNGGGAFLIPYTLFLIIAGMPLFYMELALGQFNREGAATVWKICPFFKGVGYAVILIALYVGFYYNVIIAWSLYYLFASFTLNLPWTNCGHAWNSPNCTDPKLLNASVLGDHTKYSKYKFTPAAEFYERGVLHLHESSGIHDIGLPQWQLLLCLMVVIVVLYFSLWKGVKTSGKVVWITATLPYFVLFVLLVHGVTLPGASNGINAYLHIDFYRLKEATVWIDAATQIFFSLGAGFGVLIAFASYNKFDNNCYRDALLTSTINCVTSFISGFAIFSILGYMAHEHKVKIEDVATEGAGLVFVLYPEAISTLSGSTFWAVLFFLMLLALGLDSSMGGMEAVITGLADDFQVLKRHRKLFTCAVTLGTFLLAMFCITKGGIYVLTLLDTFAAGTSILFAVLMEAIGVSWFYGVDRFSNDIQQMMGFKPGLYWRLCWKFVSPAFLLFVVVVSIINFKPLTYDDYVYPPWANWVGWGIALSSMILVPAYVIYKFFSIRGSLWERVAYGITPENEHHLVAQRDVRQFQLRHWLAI
From the text: (§1) a) Investigations of the Inhibition of the Re-uptake of 5-HT and NA
(§2) In order to be able to carry out these in vitro studies, synaptosomes are freshly isolated from rat brain areas. […] These vesicular particles are isolated from the hypothalamus for the NA re-uptake and from the medulla +pons region of male rat brains for the 5-HT re-uptake.
(§3) The IC50 values were obtained with the aid of the “Figure P” computer program (version 6.0, Biosoft, Cambridge, England). […] The “Ligand” computer program (version 4, Biosoft, England) was used to obtain KD values.

mice [2] = assay: Formalin test in mice (analgesic action, chronic pain component); format: in vivo; conditions: for ED50: Mus musculus, read-out: Inhibition of the nociceptive behaviour versus control, ED50 value
Description: b) Investigations of the Analgesic Actions in the Formalin Test in Mice
The formalin test (Dubuisson, D. and Dennis, S. G., 1977, Pain, 4, 161-174) represents a model of acute and chronic pain. The chronic pain component was evaluated in the investigations described here.
A biphase nociceptive reaction which is recorded by observing three behaviour patterns which can be clearly differentiated from one another is induced in freely mobile test animals by a single formalin injection into the dorsal side of a hind paw.
Formalin is administered subcutaneously into the dorsal side of the right hind paw of each animal in a volume of 20 μl and a concentration of 1%.
The specific changes in behaviour which differ from the normal behaviour (score 0), such as raising (score 1) and shaking the paw (score 2) and biting and licking reactions (score 3), are observed and recorded continuously at component intervals of 3 min for up to 60 min after the administration of formalin. The changes in behaviour are weighted in different ways (score 0-3) and a pain rate (PR) is calculated using the following formula: PR=[(T0×0)+(T1×1)+(T2×2)+(T3×3)]/180.
The group size is 10 animals (n=10).
On the basis of the PR calculations, the action of the substance was determined as the change from a control in percent. The ED50 was determined by means of regression analysis.

5-HT re-uptake = molecular target: T2, 5-HT re-uptake (Rattus norvegicus, UniProt P31652); assay: Inhibition of 5-HT re-uptake in rat brain synaptosomes (P2 fraction, medulla + pons); format: biochemical; conditions: 10 μmol/l
T2 construct: synaptosomes are freshly isolated from rat brain areas; from tissue; host or cells: rat brain synaptosomes (P2 fraction), medulla + pons region, male rats
T2 sequence (P31652 whole entry): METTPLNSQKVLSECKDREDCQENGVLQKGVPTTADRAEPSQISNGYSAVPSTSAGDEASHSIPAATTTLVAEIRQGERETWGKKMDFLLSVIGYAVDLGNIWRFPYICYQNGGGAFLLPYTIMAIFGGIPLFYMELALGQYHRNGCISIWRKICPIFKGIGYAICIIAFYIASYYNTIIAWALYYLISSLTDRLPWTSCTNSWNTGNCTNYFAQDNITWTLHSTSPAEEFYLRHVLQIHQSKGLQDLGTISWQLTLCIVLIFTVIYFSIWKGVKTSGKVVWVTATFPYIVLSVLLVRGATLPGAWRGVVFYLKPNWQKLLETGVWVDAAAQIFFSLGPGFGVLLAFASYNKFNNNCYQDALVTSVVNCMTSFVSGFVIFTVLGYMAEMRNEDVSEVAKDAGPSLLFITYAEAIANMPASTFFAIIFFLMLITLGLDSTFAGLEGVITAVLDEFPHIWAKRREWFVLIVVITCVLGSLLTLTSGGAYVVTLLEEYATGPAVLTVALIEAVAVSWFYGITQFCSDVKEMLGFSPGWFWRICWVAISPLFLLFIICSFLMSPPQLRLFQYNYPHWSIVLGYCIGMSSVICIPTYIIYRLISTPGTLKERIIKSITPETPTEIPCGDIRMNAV
From the text: as §1, §2, §3

mice [3] = assay: Forced swimming test (Porsolt test) in mice; format: in vivo; conditions: for Change in immobility phase versus control: 2.15 mg/kg i.p., mice
Description: c) Investigation of the Antidepressant Action in the Forced Swimming Test (Porsolt Test) in Mice
The investigations to determine the antidepressant action of the compounds of the formula I according to the invention were carried out in the forced swimming test (Porsolt test) in mice (Porsolt, R. et al., Arch. Int. Pharmacodyn. vol. 229, p. 327-336, (1977)). Male mice (20-25 g body weight) were placed individually for a period of 6 minutes in a shallow bowl of water from which they were unable to escape and were therefore forced to swim. After some time the animals gave up their swimming attempts and passed into an immobility phase. The duration of the immobility phase in the interval of 2-6 minutes after introduction of the animals was determined. The substance and vehicle groups each comprise 10 animals. Changes in the duration of the immobility phase are stated relative to the vehicle control. Differences versus the vehicle control are tested for significance with the aid of the Student's T test. Antidepressants induce a shortening of the immobility phase.

Change in body turns, maximum change (mice [1]; dose range 0.56-10 mg/kg s.c.): +397% (s.)
Change in grid crossings, maximum change (mice [1]; dose range 0.56-10 mg/kg s.c.): +66% (n.s.)
SMILES: CN(C)CCCC1(c2ccc(F)cc2)OCc2cc(C#N)ccc21 (stereo not shown) [Citalopram, citalopram]
ED50 (mice [1]; mouse pups): 1.2 mg/kg

SMILES: CN(C)CC1=C(c2cccnc2)CCCC1.Cl.Cl [Example 1, Dimethyl-(2-pyridin-3-yl-cyclohex-1-enylmethyl)amine dihydrochloride]
inhibition at 10 µM (NA re-uptake): 35%
ED50 (mice [2]; iv): 1.66 mg/kg
Inhibition of the nociceptive behaviour (in words) (mice [2]; formalin test in mice): dose-dependent inhibition of the nociceptive behaviour
Change in body turns, maximum change (mice [1]; dose range 1.0-17 mg/kg s.c.): +233% (n.s.)
Change in grid crossings, maximum change (mice [1]; dose range 1.0-17 mg/kg s.c.): +32% (n.s.)
Changes in the crossings of the grid and body turns (in words) (mice [1]; locomotion and coordination): no significant changes in the crossings of the grid and body turns
Reduction in the vocalization frequency (in words) (mice [1]; pup vocalization test): significant reduction in the vocalization frequency
ED50 (mice [1]; mouse pups): 1.7 mg/kg
inhibition at 10 µM (5-HT re-uptake): 83%
Change in immobility phase versus control (mice [3]): −54%***
Shortening of the immobility phase (in words) (mice [3]; forced swimming test in mice): significant shortening of the immobility phase

SMILES: CNCC[C@H](Oc1cccc2ccccc12)c1cccs1 [duloxetine, reference compound]
ED50 (mice [2]; ip): 6.69 mg/kg
Change in immobility phase versus control (mice [3]): −41%**

SMILES: COc1ccc(C(CN(C)C)C2(O)CCCCC2)cc1 (stereo not shown) [venlafaxine, reference compound]
inhibition at 10 µM (NA re-uptake): 92%
ED50 (mice [2]; iv): 2.6 mg/kg
ED50 (mice [1]; Mus musculus): 8.1 mg/kg
Change in body turns, maximum change (mice [1]; dose range 0.3-56 mg/kg s.c.): +141% (n.s.)
Change in grid crossings, maximum change (mice [1]; dose range 0.3-56 mg/kg s.c.): +92% (n.s.)
Change in immobility phase versus control (mice [3]): −66%***
